Literature values in patent US9326930B2, “Calcium sequestration compositions and methods of treating skin pigmentation disorders and conditions” (NEOCUTIS S.A., priority 2009, dated 2016).

Assays:
[1] = tested on: melanocyte-keratinocyte co-cultures; conditions: intracellular calcium in keratinocytes chelated
B16F0 melanoma cells = conditions: L-forms, not D-forms
[2] = molecular target: melanocortin receptor 1 (MC1R) (Homo sapiens, UniProt Q01726)
Sequence of melanocortin receptor 1 (MC1R) (Q01726 whole entry, species assumed): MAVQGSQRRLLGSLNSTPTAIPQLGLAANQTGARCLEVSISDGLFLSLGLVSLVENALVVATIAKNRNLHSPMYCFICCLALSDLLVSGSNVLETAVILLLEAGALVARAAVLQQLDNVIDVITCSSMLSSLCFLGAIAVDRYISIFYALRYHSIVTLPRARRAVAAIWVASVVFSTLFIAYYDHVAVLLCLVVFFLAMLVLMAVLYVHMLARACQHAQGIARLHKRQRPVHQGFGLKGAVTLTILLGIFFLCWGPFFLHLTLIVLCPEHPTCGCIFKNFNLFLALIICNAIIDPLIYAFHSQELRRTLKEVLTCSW

Row | SMILES | effect on pigmentation (B16F0 melanoma cells) | further results
1 | CC(=O)OCOC(=O)CN(CC(=O)OCOC(C)=O)c1ccccc1OCCOc1ccccc1N(CC(=O)OCOC(C)=O)CC(=O)OCOC(C)=O [BAPTA-AM, 1,2-bis-(o-aminophenoxy)-ethane-N,N,N′,N′-tetraacetic acid tetra-acetoxymethyl ester] |  | melanin transfer [1]: melanin transfer was inhibited
2 | C[C@H](N)C(=O)O [L-alanine] | hypopigmenting effects | 
3 | CC[C@H](C)[C@H](N)C(=O)O [L-isoleucine] | hypopigmenting effects | 
4 | CC(C)C[C@H](N)C(=O)O [L-leucine] | hypopigmenting effects | 
5 | NCC(=O)O [glycine] | hypopigmenting effects | 
6 | C=CCCCCCCCCC(=O)N[C@@H](Cc1ccccc1)C(=O)O [undecylenoyl phenylalanine] |  | affinity to MC1R [2]: affinity towards MC1R; action on α-MSH ([2]; in vitro): antagonist of α-MSH
